Measured values published in US6855730B2, “3-methylidenyl-2-indolinone modulators of protein kinase” (Sugen, Inc., priority 1998, dated 2005).

What was measured:
[1] = test system: endogenous FGF receptors in 3Tc7/EGFr cells; assay: FGF-induced BrdU incorporation assay; assay type: cell-based; conditions: read-out: FGF-Induced BrdU Incorp. IC50
Procedure: The cellular/catalytic assays described herein are performed in an ELISA format. The general procedure is as follows: a compound is introduced to cells expressing the test kinase, either naturally or recombinantly, for a selected period of time after which, if the test kinase is a receptor, a ligand known to activate the receptor is added. The cells are lysed and the lysate is transferred to the wells of an ELISA plate previously coated with a specific antibody recognizing the substrate of the enzymatic phosphorylation reaction. Non-substrate components of the cell lysate are washed away and the amount of phosphorylation on the substrate is detected with an antibody specifically recognizing phosphotyrosine compared with control cells that were not contacted with a test compound. The cellular/biologic assays described herein measure the amount of DNA made in response to activation of a test kinase, which is a general measure of a proliferative response. The general procedure for this assay is as follows: a compound is introduced to cells expressing the test kinase, either naturally or recombinantly, for a selected period of time after which, if the test kinase is a receptor, a ligand known to activate the receptor is added. After incubation at least overnight, a DNA labeling reagent such as Bromodeoxyuridine (BrdU) or 3H-thymidine is added. The amount of labeled DNA is detected with either an anti-BrdU antibody or by measuring radioactivity and is compared to control cells not contacted with a test compound.
FGF-Induced BrdU incorporation Assay
This assay measures FGF-induced DNA synthesis in 3Tc7/EGFr cells that express endogenous FGF receptors.
Materials and Reagents: • 1. FGF: human FGF2/bFGF (Gibco BRL, No. 13256-029). • 2. BrdU Labeling reagent, (10 mM PBS (pH 7.4), Boehringer Mannheim Cat No. 1 647 229). • 3. Fixdenat fixation solution (Boehringer Mannheim Cat No. 1 647 229). • 4. Anti-BrdU-POD (mouse monoclonal antibody conjugated with peroxidase, Boehringer Mannheim Cat. No. 1 647 229). • 5. TMB (tetramethylbenzidine, Boehringer Mannheim Cat. No. 1 647 229). • 6. PBS washing solution, pH 7.4 (Sugen, Inc.). • 7. Albumin, bovine (BSA), fraction V powder (Sigma Chemical Co., Cat. No. A-8551)
Procedure • 1. 3T3 engineered cell line: 3T3c7/EGFr. • 2. Cells are seeded at 8,000 cells/well in DMEM, 10% CS and 2 mM Gln in a 96-well plate. Incubate 24 hours at 37° C. in 5% CO2. • 3. After 24 hours, wash cells with PBS then serum starve in serum free medium (0% DMEM, 0.1% BSA) for 24 hours. • 4. Add ligand (FGF2 (1.5 nM in DMEM with 0.1% BSA) and test compound simultaneously. Negative control wells receive serum free DMEM with 0.1% BSA only, positive control wells receive FGF2 ligand but no test compound. Test compounds are prepared in serum-free DMEM with ligand in a 96-well plate and serially diluted to make seven (7) test concentrations. • 5. After 20 hours, add diluted BrdU labeling reagent (1:100 BrdU:DMEM, 0.1% BSA, final concentration is 10 μM) to the cells and incubate for 1.5 hours. • 6. Decant medium. Remove traces of material with paper towel. Add FixDenat (50 μl/well) and incubate at room temperature for 45 minutes on a plate shaker. • 7. Remove Fixdenat solution. Add blocking solution (5% dehydrated milk in PBS (200 μl/well)) and incubate for 30 minutes at room temperature on a plate shaker. • 8. Decant blocking solution, wash wells once with PBS. Add anti-BrdU-POD solution (1:100 dilution in PBS, 0.1% BSA), incubate for 90 minutes at room temperature on a plate shaker. • 9. Decant antibody conjugate, rinse wells 5 times with PBS. Dry plate by inverting on paper towel and tapping. • 10. Add TMB solution (100 μl/well), incubate 20 minutes at room temperature on a plate shaker until color development is sufficient for photometric detection. • 11. Measure absorbance at 410 nm on a Dynatech ELISA plate reader using “Dual wavelength” mode with a filter at 490 nM. Biochemical EGFR Assay

[2] = test system: HUV-EC-C cells (VEGF, Flk-1/KDR); assay: HUV-EC-C assay, VEGF-stimulated 3H-thymidine incorporation; assay type: cell-based; conditions: Homo sapiens, read-out: HUVEC-VEGF IC50

IC50 [1] [nM]	IC50 [2] [nM]	SMILES
–	< 70	Cc1c[nH]c(/C=C2\C(=O)Nc3ccc(Cl)cc32)c1CCC(=O)O [Example 216, 3-[2-(5-Chloro-2-oxo-1,2-dihydroindol-3-ylidenemethyl)-4-methyl-1H-pyrrol-3-yl]-propionic acid]
–	1	Cc1ccc2c(c1)/C(=C/c1[nH]c3c(c1CCC(=O)O)CCCC3)C(=O)N2 [Example 194, 3-[2-(5-Methyl-2-oxo-1,2-dihydroindol-3-ylidenemethyl)-4,5,6,7-tetrahydro-1H-indol-3-yl]-propionic acid]
–	20	COc1ccc2c(c1)NC(=O)/C2=C\c1[nH]c2c(c1CCC(=O)O)CCCC2 [Example 196, 3-[2-(6-Methoxy-2-oxo-1,2-dihydroindol-3-ylidenemethyl)-4,5,6,7-tetrahydro-1H-indol-3-yl]-propionic acid]
–	0.3	O=C(O)CCc1c(/C=C2\C(=O)Nc3ccc(Br)cc32)[nH]c2c1CCCC2 [Example 192, 3-[2-(5-Bromo-2-oxo-1,2-dihydroindol-3-ylidenemethyl)-4,5,6,7-tetrahydro-1H-indol-3yl]-propionic acid]
> 50000	–	COc1ccc2c(c1)NC(=O)/C2=C\c1[nH]cc(C)c1CCC(=O)O [Example 217, 3-[2-(6-Methoxy-2-oxo-1,2-dihydroindol-3-ylidenemethyl)-4-methyl-1H-pyrrol-3-yl]-propionic acid]

Continued, molecule first:

SMILES	IC50 [1] [nM]	IC50 [2] [nM]
CNC(=O)CCc1c(/C=C2\C(=O)Nc3ccccc32)[nH]c2c1CCCC2 [Example 201, N-Methyl-3-[2-(2-oxo-1,2-dihydroindol-3-ylidenemethyl)-4,5,6,7-tetrahydro-1H-indol-3-yl]-propionamide]	> 50000	< 30
O=C(CCc1c(/C=C2\C(=O)Nc3ccccc32)[nH]c2c1CCCC2)NCCN1CCOCC1 [Example 202, N-(2-Morpholin-4-ylethyl)-3-[2-(2-oxo-1,2-dihydroindol-3-ylidenemethyl)-4,5,6,7-tetrahydro-1H-indol-3-yl]-propionamide]	> 50000	< 30
CN(C)C(=O)CCc1c(/C=C2\C(=O)Nc3ccccc32)[nH]c2c1CCCC2 [Example 197, N,N-Dimethyl-3-[2-(2-oxo-1,2-dihydroindol-3-ylidenemethyl)-4,5,6,7-tetrahydro-1H-indol-3-yl]-propionamide]	> 50000	< 3
NC(=O)CCc1c(/C=C2\C(=O)Nc3ccccc32)[nH]c2c1CCCC2 [Example 199, 3-[2-(2-Oxo-1,2-dihydroindol-3-ylidenemethyl)-4,5,6,7-tetrahydro-1H-indol-3-yl]-propionamide]	> 50000	< 30
O=C(O)CCc1c(/C=C2\C(=O)Nc3ccc(Cl)cc32)[nH]c2c1CCCC2 [Example 191, 3-[2-(5-Chloro-2-oxo-1,2-dihydroindol-3-ylidenemethyl)-4,5,6,7-tetrahydro-1H-indol-3-yl]-propionic acid]	23600	0.04
Cc1c[nH]c(/C=C2\C(=O)Nc3ccccc32)c1CCC(=O)O [Example 215, 3-[4-Methyl-2-(2-oxo-1,2-dihydroindol-3-ylidenemethyl)-1H-pyrrol-3-yl]-propionic acid]	25000	–
Cc1c[nH]c(/C=C2\C(=O)Nc3cccc(C)c32)c1CCC(=O)O [Example 218, 3-[2-(4-Methyl-2-oxo-1,2-dihydroindol-3-ylidenemethyl)-4-methyl-1H-pyrrol-3-yl]-propionic acid]	> 50000	< 70
O=C1Nc2ccccc2/C1=C/c1[nH]c2c(c1CCC(=O)N1CCOCC1)CCCC2 [Example 200, 3-[3-(3-Morpholin-4-yl-3-oxopropyl)-4,5,6,7-tetrahydro-1H-indol-2-ylmethylene]-1,3-dihydroindol-2-one]	> 50000	–
Cc1c[nH]c(/C=C2\C(=O)Nc3ccc(Br)cc32)c1CCC(=O)O [Example 220, 3-[2-(5-Bromo-2-oxo-1,2-dihydroindol-3-ylidenemethyl)-4-methyl-1H-pyrrol-3-yl]-propionic acid]	> 50000	40
CN(C)CCCc1c(/C=C2\C(=O)Nc3ccccc32)[nH]c2c1CCCC2 [Example 198, 3-[3-(3-Dimethylaminopropyl)-4,5,6,7-tetrahydro-1H-indol-2-ylmethylene]-1,3-dihydroindol-2-one]	> 50000	–
